Molecules are shown by their SMILES. Read-outs that look alike come from different tables or passages of the source.

Test [1] deals with histone H3 hyperacetylation in HeLa cervical carcinoma cells. The test can be described thus: Cellular histone H3 hyperacetylation assay. The format is cell-based. To be noted: Homo sapiens, 24 h treatment. An excerpt:
To assess the cellular efficacy of a histone deacetylase inhibitor in vitro, an assay is set up in black clear-bottom 96-well plates and optimized for use on the Cellomics “ArrayScan II” platform for a quantitative calculation of histone acetylation. The protocol uses a polyclonal rabbit antibody, specifically binding to acetylated lysine 1-20 (including K 9 and K14) of human histone H3 on fixed cells with an Alexa Fluor 488 labeled goat anti rabbit-IgG used for counterstaining 5×10^3 HeLa cervical carcinoma cells/well (ATCC CCL-2) in 200 μl Dulbecco's modified Eagle's medium (DMEM) containing 10% fetal calf serum are seeded at day 1 in Packard view plates and incubated for 24 h under standard cell culture conditions. On day 2, 1 μl test compound (200× final concentration) is added and incubation continued for further 24 h. On day 3, the culture medium is discarded and attached cells fixed for 15 min at room temperature by addition of 100 μl fixation buffer (3.7% v:v formaldehyde in phosphate buffered saline/PBS). After discarding the fixation buffer and one wash with blocking solution (1% BSA, 0.3% Tween 20 in PBS), cells are permeabilized at room temperature by addition of 100 μl /well permeabilization buffer (30.8 mM NaCl, 0.54 mM Na2HPO4, 0.31 mM KH2PO4, 0.1% v:v Triton X-100) for 15 min at room temperature. After discarding the permeabilization buffer and washing twice with 100 μl/well blocking solution at room temperature, the 1st antibody (anti-K1-20 histone H3 antibody, Calbiochem No. 382158) in blocking solution (50 μl/well) is added. After incubation for 1 h at room temperature, the wells are washed twice at room temperature with 100 μl/well blocking solution before addition of the 2nd antibody (goat-anti-rabbit Alexa Fluor 488; MoBiTec No. A -11008) in blocking solution (50 μl well). After further incubation for 1 h at room temperature, wells are washed twice with 100 μl/well blocking solution at room temperature. Finally, 100 μl/well PBS are added and image analysis performed on the Cellomics “ArrayScan II” platform. For EC50 determination, the percentage of positive cells showing nuclear fluorescence is determined and EC50 calculation done from concentration-effect curves by means of non-linear regression. For calibration, a positive (reference HDAC inhibitors like SAHA or NVP LBH-589) and a negative control were included.

For the next test, the system named is A549 NSCLC cells. The test can be described thus: Cellular cytotoxicity assay (Alamar Blue), A549. The format is cell-based. To be noted: Homo sapiens, 72 h, upper end given as ≧100, read-out: IC50 (μM), cytotoxicity towards A549 NSCLC cells. The gist of the method:
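Cells were dosed 24 h after seeding with semi-log compound dilutions in quadruplicate, then incubated 72 h at 37 °C, 5% CO2. Viability read by Resazurin reduction (4 h, fluorescence 544/590 nm) relative to untreated 0.5% DMSO controls; IC50 by non-linear regression.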

The mark [2] stands for this setting: read-out: EC50, induction of histone H3 hyperacetylation.
Setting [3] is: read-out: −lg EC50, induction of histone H3 hyperacetylation.

Consider `Nc1ccccc1NC(=O)c1nc2c(s1)CN(C(=O)NCc1ccccc1)CC2` [Example 4, N^2-(2-aminophenyl)-N5-benzyl-6,7-dihydro[1,3]thiazolo[5,4-c]pyridine-2,5(4H)-dicarboxamide], for which the EC50 lay in the range of 150 to 15000 nM in test [1] (setting [2]) and 251 to 15800 nM in test [1] (setting [3]). Moreover, in the test on A549 NSCLC cells, the IC50 was not below 0.2 µM.

Regarding `Nc1ccccc1NC(=O)c1nc2c(s1)CN(C(=O)Nc1ccc3c(c1)OCO3)CC2` [Example 7, N^2-(2-aminophenyl)-N5-1,3-benzodioxol-5-yl-6,7-dihydro[1,3]thiazolo[5,4-c]pyridine-2,5(4H)-dicarboxamide], the EC50 lay within 150 to 15000 nM in test [1] (setting [2]) and 251 to 15800 nM in test [1] (setting [3]). Also, the IC50 in the test on A549 NSCLC cells is not below 0.2 µM.

Turning to `Cc1ccc(NC(=O)N2CCc3nc(C(=O)Nc4ccccc4N)sc3C2)cc1` [Example 13, N^2-(2-aminophenyl)-N^5-(4-methylphenyl)-6,7-dihydro[1,3]thiazolo[5,4-c]-pyridine-2,5(4H)-dicarboxamide], the EC50 in test [1] (setting [2]) lay within 150 to 15000 nM; in test [1] (setting [3]) it was 251 to 15800 nM. The IC50 in the test on A549 NSCLC cells was not below 0.2 µM.

As for `Nc1ccccc1NC(=O)c1nc2c(s1)CN(C(=O)NCc1cccnc1)CC2` [Example 14, N^2-(2-aminophenyl)-N^5-(pyridin-3-ylmethyl)-6,7-dihydro[1,3]thiazolo[5,4-c]pyridine-2,5(4H)-dicarboxamide], the figures for the half-maximal effective concentration (EC50) in test [1] (setting [2]) and in test [1] (setting [3]) were 150 to 15000 nM and 251 to 15800 nM, respectively. Also, the IC50 in the test on A549 NSCLC cells was not below 0.2 µM.

As to `Nc1ccccc1NC(=O)c1nc2c(s1)CN(C(=O)Nc1ccncc1)CC2` [Example 15, N^2-(2-aminophenyl)-N^5-pyridin-4-yl-6,7-dihydro[1,3]thiazolo[5,4-c]pyridine-2,5(4H)-dicarboxamide], the EC50 in test [1] (setting [2]) lay in the range of 150 to 15000 nM; in test [1] (setting [3]) it was 251 to 15800 nM. Besides, in the test with A549 NSCLC cells, the IC50 was not below 0.2 µM.

For the compound `COCCNC(=O)N1CCc2nc(C(=O)Nc3ccccc3N)sc2C1` [Example 16, N^2-(2-aminophenyl)-N^5-(2-methoxyethyl)-6,7-dihydro[1,3]thiazolo[5,4-c]-pyridine-2,5(4H)-dicarboxamide], the EC50 in test [1] (setting [2]) was 150 to 15000 nM; in test [1] (setting [3]), 251 to 15800 nM. In addition, in the test on A549 NSCLC cells, the IC50 was not below 0.2 µM.

Turning to `CN(C)c1cccc(NC(=O)N2CCc3nc(C(=O)Nc4ccccc4N)sc3C2)c1` [Example 18, N^2-(2-aminophenyl)-N^5-[3-(dimethylantino)phenyl]-6,7-dihydro[1,3]thiazolo[5,4-c]pyridine-2,5(4H)-dicarboxamide], the EC50 in test [1] (setting [2]) fell in the range of 150 to 15000 nM; in test [1] (setting [3]), 251 to 15800 nM. The IC50 in the test with A549 NSCLC cells is not below 0.2 µM.

For `COc1ccc(NC(=O)N2CCc3nc(C(=O)Nc4ccccc4N)sc3C2)cc1OC` [Example 19, N^2-(2-aminophenyl)-N^5-(3,4-dimethoxyphenyl)-6,7-dihydro[1,3]thiazolo[5,4-c]pyridine-2,5(4H)-dicarboxamide], the EC50 in test [1] (setting [2]) was 150 to 15000 nM; in test [1] (setting [3]), 251 to 15800 nM. For the same compound, the IC50 with A549 NSCLC cells was not below 0.2 µM.

In the case of `CN(C)c1ccc(NC(=O)N2CCc3nc(C(=O)Nc4ccccc4N)sc3C2)cn1` [Example 36, N^2-(2-aminophenyl)-N^5-[6-(dimethylamino)pyridin-3-yl]-6,7-dihydro[1,3]thiazolo[5,4-c]pyridine-2,5(4H)-dicarboxamide], the results for the EC50 in test [1] (setting [2]) and in test [1] (setting [3]) were 150 to 15000 nM and 251 to 15800 nM, respectively. For the same compound, the IC50 in the test with A549 NSCLC cells was not below 0.2 µM.

Take `CN1CCN(c2ccc(NC(=O)N3CCc4nc(C(=O)Nc5ccccc5N)sc4C3)cn2)CC1` [Example 37, N^2-(2-aminophenyl)-N^5-[6-(4-methylpiperazin-1-yl)pyridin-3-yl]-6,7-dihydro[1,3]thiazolo[5,4-c]pyridine-2,5(4H)-dicarboxamide]: the figures for the EC50 in test [1] (setting [2]) and in test [1] (setting [3]) were 150 to 15000 nM and 251 to 15800 nM, respectively. Also, the IC50 in the test on A549 NSCLC cells was not below 0.2 µM.

On to `Nc1ccccc1NC(=O)c1nc2c(s1)CN(C(=O)Nc1cccnc1)CC2` [Example 39, N^2-(2-aminophenyl)-N^5-pyridin-3-yl-6,7-dihydro[1,3]thiazolo[5,4-c]pyridine-2,5(4H)-dicarboxamide], for which the EC50 in test [1] (setting [2]) was in the range of 150 to 15000 nM; in test [1] (setting [3]), 251 to 15800 nM. Besides, the IC50 in the test on A549 NSCLC cells was not below 0.2 µM.

As for `CC(=O)N1CCc2nc(C(=O)Nc3ccccc3N)sc2C1` [Example 92, 5-acetyl-N-(2-aminophenyl)-4,5,6,7-tetrahydro[1,3]thiazolo[5,4-c]pyridine-2-carboxamide], the EC50 lay in the range of 150 to 15000 nM in test [1] (setting [2]) and 251 to 15800 nM in test [1] (setting [3]). Besides, in the test with A549 NSCLC cells, the IC50 was not below 0.2 µM.

In the case of `Cc1ccc(C(=O)N2CCc3nc(C(=O)Nc4ccccc4N)sc3C2)cn1` [Example 96, N-(2-aminophenyl)-5-[(6-methylpyridin-3-yl)carbonyl]-4,5,6,7-tetrahydro-[1,3]thiazolo[5,4-c]pyridine-2-carboxamide], the figures for the EC50 in test [1] (setting [2]) and in test [1] (setting [3]) were 150 to 15000 nM and 251 to 15800 nM, respectively. The IC50 in the test on A549 NSCLC cells was not below 0.2 µM.

For the compound `N#CN=C(Nc1ccccc1)N1CCc2nc(C(=O)Nc3ccccc3N)sc2C1` [Example 116, N-(2-aminophenyl)-5-[anilino(cyanoimino)methyl]-4,5,6,7-tetrahydro[1,3]thiazolo[5,4-c]pyridine-2-carboxamide], the EC50 in test [1] (setting [2]) was 150 to 15000 nM; in test [1] (setting [3]), 251 to 15800 nM. Moreover, the IC50 in the test on A549 NSCLC cells is not below 0.2 µM.

With `CCCOC(=O)c1ccc(OC(=O)N2CCc3nc(C(=O)Nc4ccccc4N)sc3C2)cc1` [Example 184, 4-(propoxycarbonyl)phenyl 2-[(2-aminophenyl)carbamoyl]-6,7-dihydro[1,3]thiazolo[5,4-c]pyridine-5(4H)-carboxylate], in the test on A549 NSCLC cells, the IC50 was not below 0.2 µM.

As for `Nc1ccccc1NC(=O)c1nc2c(s1)CN(C(=O)Oc1ccc3ccccc3c1)CC2` [Example 185, 2-naphthyl 2-[(2-aminophenyl)carbamoyl]-6,7-dihydro[1,3]thiazolo[5,4-c]-pyridine-5(4H)-carboxylate], in the test on A549 NSCLC cells, the IC50 was not below 0.2 µM.

As to `CCCCOC(=O)N1CCc2nc(C(=O)Nc3ccccc3N)sc2C1` [Example 187, Butyl 2-[(2-aminophenyl)carbamoyl]-6,7-dihydro[1,3]thiazolo[5,4-c]pyridine-5(4H)-carboxylate], the IC50 in the test on A549 NSCLC cells was not below 0.2 µM.

Take `Nc1ccccc1NC(=O)c1nc2c(s1)CN(C(=O)OCc1ccccc1)CC2` [Example 188, Benzyl 2-[(2-aminophenyl)carbamoyl]-6,7-dihydro[1,3]thiazolo[5,4-c]pyridine-5(4H)-carboxylate]: the IC50 in the test on A549 NSCLC cells was not below 0.2 µM.

Turning to `Nc1ccccc1NC(=O)c1nc2c(s1)CN(c1ccc(C(F)(F)F)cn1)CC2` [Example 195, N-(2-aminophenyl)-5-[5-(trifluoromethyl)pyridin-2-yl]-4,5,6,7-tetrahydro[1,3]thiazolo[5,4-c]pyridine-2-carboxamide], in the test with A549 NSCLC cells, the IC50 is not below 0.2 µM.

In the case of `Nc1ccccc1NC(=O)c1nc2c(s1)CN(c1ccc(NC(=O)NCc3ccccc3)cc1)CC2` [Example 198, N-(2-aminophenyl)-5-{4-[(benzylcarbamoyl)amino]phenyl}-4,5,6,7-tetrahydro[1,3]thiazolo[5,4-c]pyridine-2-carboxamide], in the test on A549 NSCLC cells, the IC50 is not below 0.2 µM.

Regarding `Cc1ccc(S(=O)(=O)Nc2ccc(N3CCc4nc(C(=O)Nc5ccccc5N)sc4C3)cc2)cc1` [Example 199, N-(2-aminophenyl)-5-(4-{[(4-methylphenyl)sulfonyl]amino}phenyl)-4,5,6,7-tetrahydro[1,3]thiazolo[5,4-c]pyridine-2-carboxamide], in the test with A549 NSCLC cells, the IC50 is not below 0.2 µM.

One may read the EC50 as the midpoint of the concentration-response curve. As a reminder, the IC50 is the concentration that gives 50% inhibition.

The record behind these values is US8440830B2, “Tetrahydro-fused pyridines as histone deacetylase inhibitors” (4SC AG, priority 2007, dated 2013).
